# Laboratory results published in the supplement of paper PMC10307832.
# Experiments:
# Assay in all cases: relative viability (nuclei count vs DMSO), 5 days (fraction); higher = more cells survive
# NCI-H1915 = tested on: NCI-H1915
# Method in brief: (§1)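 Lung cancer cell lines in 1536-well plates got either a single drug or a fixed anchor-drug dose together with five library-drug doses (not always all listed) in √10 steps, by pin tool, on the day after seeding. Nuclei were counted after 5 days, and relative viability is the treated-to-vehicle ratio of nuclei counts. Values are medians of duplicate plates.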
# UMC-11 = tested on: UMC-11
# Method in brief: as §1
# SK-LU-1 = tested on: SK-LU-1
# Method in brief: as §1
# HOP-62 = tested on: HOP-62
# Method in brief: as §1
# NCI-H2009 = tested on: NCI-H2009
# Method in brief: as §1
# NCI-H2085 = tested on: NCI-H2085
# Method in brief: as §1
# NCI-H1944 = tested on: NCI-H1944
# Method in brief: as §1
# LXF-289 = tested on: LXF-289
# Method in brief: as §1
# NCI-H1793 = tested on: NCI-H1793
# Method in brief: as §1
# LU99A = tested on: LU99A
# Method in brief: as §1
# HCC-366 = tested on: HCC-366
# Method in brief: as §1
# LC-2-ad = tested on: LC-2-ad
# Method in brief: as §1
# NCI-H1792 = tested on: NCI-H1792
# Method in brief: as §1
# HCC-78 = tested on: HCC-78
# Method in brief: as §1
# NCI-H460 = tested on: NCI-H460
# Method in brief: as §1
# COR-L 105 = tested on: COR-L 105
# Method in brief: as §1
# A-427 = tested on: A-427
# Method in brief: as §1
# NCI-H358 = tested on: NCI-H358
# Method in brief: as §1
# NCI-H2170 = tested on: NCI-H2170
# Method in brief: as §1
# EPLC-272H = tested on: EPLC-272H
# Method in brief: as §1
# NCI-H1666 = tested on: NCI-H1666
# Method in brief: as §1
# SW 900 = tested on: SW 900
# Method in brief: as §1
compound,measurement,setting,value
COc1cc2nccc(Oc3ccc(NC(=O)Nc4cc(C)on4)c(Cl)c3)c2cc1OC [Tivozanib] + COc1cccc2cc(-c3nc([C@H]4CC[C@H](C(=O)O)CC4)n4ncnc(N)c34)[nH]c12 [OSI-027] (partner 0.5 µM),relative viability,NCI-H1915; first compound 0.005 µM,0.594
same,relative viability,NCI-H1915; first compound 0.01581 µM,0.604
same,relative viability,NCI-H1915; first compound 0.05 µM,0.653
same,relative viability,NCI-H1915; first compound 0.1581 µM,0.523
same,relative viability,NCI-H1915; first compound 0.5 µM,0.49
same,relative viability,UMC-11; first compound 0.005 µM,0.491
same,relative viability,UMC-11; first compound 0.01581 µM,0.451
same,relative viability,UMC-11; first compound 0.05 µM,0.536
same,relative viability,UMC-11; first compound 0.5 µM,0.426
same,relative viability,SK-LU-1; first compound 0.005 µM,0.343
same,relative viability,SK-LU-1; first compound 0.01581 µM,0.314
same,relative viability,SK-LU-1; first compound 0.05 µM,0.383
same,relative viability,SK-LU-1; first compound 0.1581 µM,0.24
same,relative viability,SK-LU-1; first compound 0.5 µM,0.338
same,relative viability,HOP-62; first compound 0.005 µM,0.838
same,relative viability,HOP-62; first compound 0.01581 µM,0.829
same,relative viability,HOP-62; first compound 0.05 µM,0.798
same,relative viability,HOP-62; first compound 0.1581 µM,0.587
same,relative viability,HOP-62; first compound 0.5 µM,0.817
same,relative viability,NCI-H2009; first compound 0.005 µM,0.605
same,relative viability,NCI-H2009; first compound 0.01581 µM,0.689
same,relative viability,NCI-H2009; first compound 0.05 µM,0.65
same,relative viability,NCI-H2009; first compound 0.1581 µM,0.374
same,relative viability,NCI-H2009; first compound 0.5 µM,0.386
same,relative viability,NCI-H2085; first compound 0.005 µM,0.757
same,relative viability,NCI-H2085; first compound 0.01581 µM,0.66
same,relative viability,NCI-H2085; first compound 0.05 µM,0.817
same,relative viability,NCI-H2085; first compound 0.1581 µM,0.382
same,relative viability,NCI-H2085; first compound 0.5 µM,0.528
same,relative viability,NCI-H1944; first compound 0.005 µM,0.396
same,relative viability,NCI-H1944; first compound 0.01581 µM,0.431
same,relative viability,NCI-H1944; first compound 0.05 µM,0.449
same,relative viability,NCI-H1944; first compound 0.1581 µM,0.344
same,relative viability,NCI-H1944; first compound 0.5 µM,0.447
same,relative viability,LXF-289; first compound 0.005 µM,0.812
same,relative viability,LXF-289; first compound 0.01581 µM,0.786
same,relative viability,LXF-289; first compound 0.05 µM,0.845
same,relative viability,LXF-289; first compound 0.1581 µM,0.638
same,relative viability,LXF-289; first compound 0.5 µM,0.618
same,relative viability,NCI-H1793; first compound 0.005 µM,0.225
same,relative viability,NCI-H1793; first compound 0.01581 µM,0.219
same,relative viability,NCI-H1793; first compound 0.05 µM,0.344
same,relative viability,NCI-H1793; first compound 0.1581 µM,0.249
same,relative viability,NCI-H1793; first compound 0.5 µM,0.235
same,relative viability,LU99A; first compound 0.005 µM,0.292
same,relative viability,LU99A; first compound 0.01581 µM,0.302
same,relative viability,LU99A; first compound 0.05 µM,0.301
same,relative viability,LU99A; first compound 0.1581 µM,0.268
same,relative viability,LU99A; first compound 0.5 µM,0.238
same,relative viability,HCC-366; first compound 0.005 µM,0.839
same,relative viability,HCC-366; first compound 0.01581 µM,0.849
same,relative viability,HCC-366; first compound 0.05 µM,1.02
same,relative viability,HCC-366; first compound 0.1581 µM,0.707
same,relative viability,HCC-366; first compound 0.5 µM,0.57
same,relative viability,LC-2-ad; first compound 0.005 µM,0.784
same,relative viability,LC-2-ad; first compound 0.01581 µM,0.834
same,relative viability,LC-2-ad; first compound 0.05 µM,0.812
same,relative viability,LC-2-ad; first compound 0.1581 µM,0.71
same,relative viability,LC-2-ad; first compound 0.5 µM,0.512
same,relative viability,NCI-H1792; first compound 0.005 µM,0.665
same,relative viability,NCI-H1792; first compound 0.01581 µM,0.633
same,relative viability,NCI-H1792; first compound 0.05 µM,0.68
same,relative viability,NCI-H1792; first compound 0.1581 µM,0.728
same,relative viability,NCI-H1792; first compound 0.5 µM,0.746
same,relative viability,HCC-78; first compound 0.005 µM,0.326
same,relative viability,HCC-78; first compound 0.01581 µM,0.369
same,relative viability,HCC-78; first compound 0.05 µM,0.386
same,relative viability,HCC-78; first compound 0.1581 µM,0.31
same,relative viability,HCC-78; first compound 0.5 µM,0.316
same,relative viability,NCI-H460; first compound 0.005 µM,0.626
same,relative viability,NCI-H460; first compound 0.01581 µM,0.692
same,relative viability,NCI-H460; first compound 0.05 µM,0.727
same,relative viability,NCI-H460; first compound 0.1581 µM,0.622
same,relative viability,NCI-H460; first compound 0.5 µM,0.578
same,relative viability,COR-L 105; first compound 0.005 µM,0.707
same,relative viability,COR-L 105; first compound 0.01581 µM,0.748
same,relative viability,COR-L 105; first compound 0.05 µM,0.719
same,relative viability,COR-L 105; first compound 0.1581 µM,0.525
same,relative viability,COR-L 105; first compound 0.5 µM,0.762
same,relative viability,A-427; first compound 0.005 µM,0.458
same,relative viability,A-427; first compound 0.01581 µM,0.492
same,relative viability,A-427; first compound 0.05 µM,0.552
same,relative viability,A-427; first compound 0.1581 µM,0.434
same,relative viability,A-427; first compound 0.5 µM,0.368
same,relative viability,NCI-H358; first compound 0.005 µM,0.751
same,relative viability,NCI-H358; first compound 0.01581 µM,0.776
same,relative viability,NCI-H358; first compound 0.05 µM,0.674
same,relative viability,NCI-H358; first compound 0.1581 µM,0.332
same,relative viability,NCI-H358; first compound 0.5 µM,0.727
same,relative viability,NCI-H2170; first compound 0.005 µM,0.633
same,relative viability,NCI-H2170; first compound 0.01581 µM,0.78
same,relative viability,NCI-H2170; first compound 0.05 µM,0.723
same,relative viability,NCI-H2170; first compound 0.1581 µM,0.464
same,relative viability,NCI-H2170; first compound 0.5 µM,0.661
same,relative viability,EPLC-272H; first compound 0.005 µM,0.268
same,relative viability,EPLC-272H; first compound 0.01581 µM,0.318
same,relative viability,EPLC-272H; first compound 0.05 µM,0.299
same,relative viability,EPLC-272H; first compound 0.1581 µM,0.244
same,relative viability,EPLC-272H; first compound 0.5 µM,0.294
same,relative viability,NCI-H1666; first compound 0.005 µM,0.927
same,relative viability,NCI-H1666; first compound 0.01581 µM,0.856
same,relative viability,NCI-H1666; first compound 0.05 µM,0.843
same,relative viability,NCI-H1666; first compound 0.1581 µM,0.799
same,relative viability,NCI-H1666; first compound 0.5 µM,0.807
same,relative viability,SW 900; first compound 0.005 µM,0.556
same,relative viability,SW 900; first compound 0.01581 µM,0.501
same,relative viability,SW 900; first compound 0.05 µM,0.641
same,relative viability,SW 900; first compound 0.1581 µM,0.301
same,relative viability,SW 900; first compound 0.5 µM,0.518
